Assays:
[1] = tested on: γH2AX in tumor; assay: γH2AX nuclear area positive score; format: in vivo, human; conditions: veliparib and AC, paired biopsy, baseline <5%
[2] = Phase I dose escalation
[3] = tested on: recombinant cytochrome P450s; conditions: cited from earlier work
[4] = tested on: MX-1 BRCA1 deficient breast cancer model; conditions: cyclophosphamide 12.5 mg/kg/day on days 20, 14, and 27 and veliparib 25 mg/kg/day; cited from earlier work
[5] = tested on: γH2AX in circulating tumor cells (CTCs); assay: Total CTCs and γH2AX-positive CTCs; format: in vivo, human; conditions: veliparib and AC
[6] = tested on: metastatic breast cancer; conditions: veliparib with oral cyclophosphamide; cited from earlier work
[7] = tested on: metastatic malignancy; assay: Tumor response by RECIST version 1.1; format: in vivo, human
[8] = Drug-related adverse events graded by NCI CTCAE version 4.0; format: in vivo, human
[9] = Group 1 N=31: veliparib Days 1-4 + cyclophosphamide Day 3, all tumor types
[10] = Group 2 N=22: veliparib Days 1-4 + AC Day 3, all tumor types
[11] = Group 3 N=14: veliparib 100 mg every 12 h Days 1-7 + AC Day 1
[12] = Group 4 N=13: veliparib 100 mg every 12 h Days 1-14 + AC Day 1
[13] = Group 1 N=31: veliparib Days 1-4 + cyclophosphamide Day 3
[14] = Group 2 N=22: veliparib Days 1-4 + AC Day 3

SMILES: C[C@]1(c2nc3c(C(N)=O)cccc3[nH]2)CCCN1 [veliparib, 2-[(R)-2-methylpyrrolidin-2-yl]-1H-benzimidazole-4-carboxamide]
- γH2AX nuclear area positive score (%NAP) after treatment ([1]; patient with partial response): 3.23%
- γH2AX nuclear area positive score (%NAP) after treatment ([1]; patient with progressive disease): 10.96%
- γH2AX nuclear area positive score (%NAP) after treatment ([1]; patient with stable disease): 5.2%
- γH2AX nuclear area positive score (%NAP) after treatment ([1]; response could not be assessed): 4.5%
- MTD or recommended phase II dose of veliparib with AC ([2]; Group 2: Days 1-4 with AC 60/600 mg/m^2 Day 3 every 21 days): 100 mg every 12 h
- No. of Pts with DLTS ([2]; Group 3 Level 1b: veliparib 100 mg every 12 h Days 1-7 + cyclophosphamide 600 mg/m^2 + doxorubicin 60 mg/m^2 Day 1, n=14): 0
- No. of Pts with DLTS ([2]; Group 4 Level 1b: veliparib 100 mg every 12 h Days 1-14 + cyclophosphamide 600 mg/m^2 + doxorubicin 60 mg/m^2 Day 1, n=13): 0
- P450 involvement in incubations with recombinant cytochrome P450s ([3]; known when the study was developed, no reference given): potential involvement of CYP1A1, 2D6, 2C19, and 3A4
- Metabolizing enzymes ([3]; only partially by CYP1A2, 2C19 and 3A4): primarily metabolized by CYP2D6
- Tumor effect of the combination [4]: tumor regression
- Change in percentage of γH2AX-positive CTCs from Day 1 to Day 14 ([5]; groups 3 and 4 combined, p =0.0006): significant increase
- Change in CTCs from Day 1 to Day 7 ([5]; groups 3 and 4 combined, p =0.0007): significant decrease
- Change in CTCs from Day 1 to Day 14 ([5]; groups 3 and 4 combined, p =0.0009): significant decrease
- Change in percentage of γH2AX-positive CTCs from Day 1 to Day 7 ([5]; groups 3 and 4 combined, p =0.016): significant increase
- Patients in whom γH2AX-positive CTCs ≥ 50% persisted to day 14 ([5]; groups 3 and 4, cycle 1): 10 patients
- Clinical benefit [6]: 19.2%
- Overall clinical benefit rate (CBR) ([7]; Group 1 (veliparib + cyclophosphamide)): 13%
- Complete response (best response achieved) [7, 9]: 0 (0) n (%)
- Stable disease ≥3 months (best response achieved) [7, 9]: 3 (10) n (%)
- Complete response (best response achieved) [7, 10]: 0 (0) n (%)
- Partial response (best response achieved) [7, 10]: 4 (18) n (%)
- Stable disease ≥3 months (best response achieved) [7, 10]: 5 (23) n (%)
- Complete response (best response achieved) [7, 11]: 0 (0) n (%)
- Partial response (best response achieved) [7, 11]: 2 (14) n (%)
- Stable disease ≥3 months (best response achieved) [7, 11]: 4 (29) n (%)
- Complete response (best response achieved) [7, 12]: 0 (0) n (%)
- Partial response (best response achieved) [7, 12]: 5 (38) n (%)
- Stable disease ≥3 months (best response achieved) [7, 12]: 1 (8) n (%)
- Objective response ([7]; V and AC treated groups (11/49)): 22%
- Overall clinical benefit rate ([7]; all groups (25/80)): 31%
- Patients with a BRCA1/2 mutation noted to have PRs ([7]; among the 59 metastatic breast cancer patients treated): 5 patients
- Anemia, All Grades [8, 13]: 8 (26) n (%)
- Anemia, Gr 3 [8, 13]: 2 (6) n (%)
- Anemia, Gr 4 [8, 13]: 0 (0) n (%)
- Anorexia, All Grades [8, 13]: 0 (0) n (%)
- Anorexia, Gr 3 [8, 13]: 0 (0) n (%)
- Anorexia, Gr 4 [8, 13]: 0 (0) n (%)
- Dehydration, All Grades [8, 13]: 0 (0) n (%)
- Dehydration, Gr 3 [8, 13]: 0 (0) n (%)
- Dehydration, Gr 4 [8, 13]: 0 (0) n (%)
- Fatigue, All Grades [8, 13]: 12 (39) n (%)
- Fatigue, Gr 3 [8, 13]: 1 (3) n (%)
- Fatigue, Gr 4 [8, 13]: 0 (0) n (%)
- Febrile neutropenia, All Grades [8, 13]: 1 (3) n (%)
- Febrile neutropenia, Gr 3 [8, 13]: 1 (3) n (%)
- Febrile neutropenia, Gr 4 [8, 13]: 0 (0) n (%)
- Hyponatremia, All Grades [8, 13]: 0 (0) n (%)
- Hyponatremia, Gr 3 [8, 13]: 0 (0) n (%)
- Hyponatremia, Gr 4 [8, 13]: 0 (0) n (%)
- Hypophosphatemia, All Grades [8, 13]: 1 (3) n (%)
- Hypophosphatemia, Gr 3 [8, 13]: 1 (3) n (%)
- Hypophosphatemia, Gr 4 [8, 13]: 0 (0) n (%)
- Hypotension, All Grades [8, 13]: 1 (3) n (%)
- Hypotension, Gr 3 [8, 13]: 1 (3) n (%)
- Hypotension, Gr 4 [8, 13]: 0 (0) n (%)
- Lymphocyte count decreased, All Grades [8, 13]: 8 (26) n (%)
- Lymphocyte count decreased, Gr 3 [8, 13]: 4 (13) n (%)
- Lymphocyte count decreased, Gr 4 [8, 13]: 2 (6) n (%)
- Nausea, All Grades [8, 13]: 5 (16) n (%)
- Nausea, Gr 3 [8, 13]: 0 (0) n (%)
- Nausea, Gr 4 [8, 13]: 0 (0) n (%)
- Neutrophil count decreased, All Grades [8, 13]: 11 (35) n (%)
- Neutrophil count decreased, Gr 3 [8, 13]: 4 (13) n (%)
- Neutrophil count decreased, Gr 4 [8, 13]: 3 (10) n (%)
- Platelet count decreased, All Grades [8, 13]: 5 (16) n (%)
- Platelet count decreased, Gr 3 [8, 13]: 1 (3) n (%)
- Platelet count decreased, Gr 4 [8, 13]: 1 (3) n (%)
- Sepsis, All Grades [8, 13]: 0 (0) n (%)
- Sepsis, Gr 3 [8, 13]: 0 (0) n (%)
- Sepsis, Gr 4 [8, 13]: 0 (0) n (%)
- Vomiting, All Grades [8, 13]: 5 (16) n (%)
- Vomiting, Gr 3 [8, 13]: 0 (0) n (%)
- Vomiting, Gr 4 [8, 13]: 0 (0) n (%)
- White blood cell decreased, All Grades [8, 13]: 9 (29) n (%)
- White blood cell decreased, Gr 3 [8, 13]: 6 (19) n (%)
- White blood cell decreased, Gr 4 [8, 13]: 1 (3) n (%)
- Anemia, All Grades [8, 14]: 16 (73) n (%)
- Anemia, Gr 3 [8, 14]: 4 (18) n (%)
- Anemia, Gr 4 [8, 14]: 0 (0) n (%)
- Anorexia, All Grades [8, 14]: 5 (23) n (%)
- Anorexia, Gr 3 [8, 14]: 0 (0) n (%)
- Anorexia, Gr 4 [8, 14]: 0 (0) n (%)
- Dehydration, All Grades [8, 14]: 1 (5) n (%)
- Dehydration, Gr 3 [8, 14]: 1 (5) n (%)

Reference: article PMC8934569 (Cancer chemotherapy and pharmacology, 2021)
